In ChEMBL document CHEMBL1130809, “Anti-inflammatory/antiarthritic ketonic bisphosphonic acid esters” (1998) one finds ED30 and inhibition in vivo data, which are given here for 21 compounds.

The inhibition in vivo is the change of the read-out against control, counted positive when it falls. A low value points to a response near the control.

Common to all, as to type: functional
What all share (conditions): route oral

In assay [1] the test system is Mus musculus. Put plainly: Compound was tested for antiarthritic activity in murine model of antigen-induced arthritis. upon 10 mg/kg peroral administration.
In assay [2] the test system is Mus musculus. Nature of the assay: Inhibition of delayed type hypersensitivity granuloma in mice following 10 mg/kg p.o. administration.
In assay [3] the test system is Mus musculus. Put plainly: Inhibition of antigen-induced arthritis in mice following 10 mg/kg p.o. administration.
Assay [4] deals with Mus musculus. Put plainly: Compound was tested for anti-inflammatory activity in delayed type hypersensitivity granuloma upon 100 mg/kg peroral administration.
Assay [5] relates to Mus musculus. Nature of the assay: Compound was tested for antiarthritic activity in murine model of antigen-induced arthritis upon 100 mg/kg peroral administration.
Assay [6] has as its system Mus musculus. Nature of the assay: Compound was tested for antiarthritic activity in murine model of antigen-induced arthritis upon 10 mg/kg peroral administration.

Molecules are shown by their SMILES.

`CC1(C)COP(=O)(C(CCC(=O)c2cccc(F)c2)P2(=O)OCC(C)(C)CO2)OC1` had an ED30 with Mus musculus [1] of 0.01 mg/kg. The inhibition in vivo at 10 mg/kg in the assay with Mus musculus [2] was less than 57%; in the assay on Mus musculus [3], 48%.
With `CCOP(=O)(OCC)C(CCC(=O)c1ccco1)P(=O)(OCC)OCC`, the inhibition in vivo at 10 mg/kg in the assay with Mus musculus [2] is 23%; with Mus musculus [3] it was 11%.
For the compound `CCOP(=O)(OCC)C(CCC(O)c1ccccc1)P(=O)(OCC)OCC` (stereo not given), at 10 mg/kg the inhibition in vivo in the assay on Mus musculus [2] was 39%.
On to `O=P(O)(O)C(Cl)(Cl)P(=O)(O)O` [CLODRONIC ACID], for which, in the assay with Mus musculus [4], the ED30 is 30 mg/kg and testing at 100 mg/kg gave an inhibition in vivo of 48%. In the assay with Mus musculus [5], this compound came in with an ED30 of 50 mg/kg and an inhibition in vivo at 100 mg/kg of 42%.
Turning to `CC1(C)COP(=O)(C(CCC(=O)c2ccccc2)P2(=O)OCC(C)(C)CO2)OC1`, in the assay with Mus musculus [2], the inhibition in vivo at 10 mg/kg was 36%.
`CCOP(=O)(OCC)C(CCC(=O)c1cccc(F)c1)P(=O)(OCC)OCC`: the ED30 with Mus musculus [1] was found to be 0.1 mg/kg. The inhibition in vivo at 10 mg/kg in the assay on Mus musculus [2] was determined as 44%; in the assay with Mus musculus [3], 40%.
`CC1(C)COP(=O)(C(CCC(=O)c2ccoc2)P2(=O)OCC(C)(C)CO2)OC1`: the figures for the inhibition in vivo at 10 mg/kg in the assay on Mus musculus [2] and in the assay with Mus musculus [3] were 45% and 16%, respectively.
The corresponding values for `CCOP(=O)(OCC)C(CCC(=O)c1ccc(NC(C)=O)cc1)P(=O)(OCC)OCC` are 75% and 10%.
Taken in the same sequence, the figures for `CCOP(=O)(OCC)C(CCC(=O)c1cccc(NS(C)(=O)=O)c1)P(=O)(OCC)OCC` were 37% and 33%.
For `CCOP(=O)(OCC)C(CCC(=O)c1cccc(Br)c1)P(=O)(OCC)OCC`, the results for the inhibition in vivo at 10 mg/kg with Mus musculus [2] and with Mus musculus [3] were 59% and 22%, respectively.
Turning to `CC1(C)COP(=O)(C(CCC(=O)c2cccnc2)P2(=O)OCC(C)(C)CO2)OC1`, in the assay with Mus musculus [1], the ED30 was determined as 0.4 mg/kg. The inhibition in vivo at 10 mg/kg with Mus musculus [2] came out at 38%; in the assay on Mus musculus [3], 28%.
`CCOP(=O)(OCC)C(CC(C(=O)c1ccccc1)c1ccccc1)P(=O)(OCC)OCC` (stereo not given) showed an inhibition in vivo at 10 mg/kg with Mus musculus [2] of 65%. In the assay with Mus musculus [6], this compound registered an ED30 of 50 mg/kg and an inhibition in vivo at 10 mg/kg of 54%.
With `CCOC(=O)Nc1ccc(C(=O)CCC(P(=O)(OCC)OCC)P(=O)(OCC)OCC)cc1`, the inhibition in vivo at 10 mg/kg came out at 43% in the assay with Mus musculus [2] and 18% in the assay on Mus musculus [3].
The corresponding values for `CCOP(=O)(OCC)C(CCCc1ccccc1)P(=O)(OCC)OCC` are 44% and 11%.
In the assay with Mus musculus [2], `CCOP(=O)(OCC)C(CCC(=O)c1cccc(I)c1)P(=O)(OCC)OCC` came in with an inhibition in vivo at 10 mg/kg of 5%.
Take `CCOP(=O)(OCC)C(CCC(=O)c1ccccn1)P(=O)(OCC)OCC`: the inhibition in vivo at 10 mg/kg turned out to be 43% with Mus musculus [2] and 47% in the assay with Mus musculus [3].
The corresponding values for `CCOP(=O)(OCC)C(CCC(=O)c1ccccc1)P(=O)(OCC)OCC` are 51% and 10%.
Taken in the same sequence, the figures for `CCOP(=O)(OCC)C(CCC(=O)c1cccc(Cl)c1)P(=O)(OCC)OCC` were 10% and 26%.
For `CCOP(=O)(OCC)C(CCC(=O)c1cccnc1)P(=O)(OCC)OCC`, the inhibition in vivo at 10 mg/kg with Mus musculus [2] is 51%; with Mus musculus [3], 61%.
The corresponding values for `CCOP(=O)(OCC)C(CC(=O)c1ccccc1)P(=O)(OCC)OCC` are 7% and 11%.
The corresponding values for `CCOP(=O)(OCC)C(CCC(=O)c1ccc(NC(=O)c2ccccc2)cc1)P(=O)(OCC)OCC` are 63% and 4%.
